One series deals with A549. Kind of series: Cytotoxicity against human A549 cells. The class given is functional. As to conditions: read-out: ED50 (the source's name).
In another series the test system is MCF7. Kind of series: Cytotoxicity against human MCF7 cells. It counts as functional. To be noted: read-out: ED50 (the source's name).
In another series the test system is HT-29. The series is described as follows: Cytotoxicity against human HT-29 cells. To be noted: read-out: ED50 (the source's name). It counts as functional.
Another series concerns Artemia. Kind of series: Toxicity in brine shrimp. It counts as organism-based. As to conditions: in vivo.

Take `CCCCCCCCCCCCCCCC(=O)O[C@H]1CC[C@]2(C)[C@H]3CC=C4[C@@H]5CC(C)(C)CC[C@]5(CO)[C@@H](O)C[C@@]4(C)[C@]3(C)CC[C@H]2C1(C)C`: the EC50 in the series on A549, in the series on MCF7 and in the series with HT-29 was above 10 µg/mL throughout. The compound also yielded an LC50 in the series with Artemia above 1000 ppm.

Values taken from ChEMBL document CHEMBL1147282, “3 beta-O-palmityl longispinogenin from Trichocereus chilensis” (J Nat Prod, 1989).
